# US9511022B2, “Suspension and cake composition containing carbostyryl derivative and silicone oil and/or silicone oil derivative” (Otsuka Pharmaceutical Co., Ltd., priority 2010, dated 2016)
# How the values were obtained:
# [1] = Mean particle size of Compound (II)/silicone oil suspension by laser diffraction, with and without sonication; type: physicochemical; conditions: 20 weight % Compound (II) suspension after wet pulverization, before silicone oil addition
# Experimental: Suspensions containing Compound (II) and silicone oil in the contents presented in Table 4 were prepared according to the following method. A 0.1% or 1% silicone oil emulsion prepared by diluting Dow Corning® 365, 35% Dimethicone NF Emulsion (produced by Dow Corning Corporation) in purified water was used as the silicone oil. A sodium carboxymethylcellulose/mannitol/sodium dihydrogenphosphate solution was used as a dispersion medium. The solids content of Compound (II) was adjusted to 10 to 20 weight %. No foaming occurred in any of the suspensions.
# An aqueous suspension (200 mg Compound (II)/1.1 to 2 mL) containing Compound (II) and silicone oil was prepared as follows. Note that the Compound (II) suspension was prepared in the same manner as in Example 1 except that the pulverizing time using a high-pressure homogenizer was shortened.
# A Compound (II) bulk powder was suspended in a dispersion medium at 20 weight %. […]
# (§1) The mean particle size of the suspension prepared as described above was measured using a SALD-3000J or SALD-3100 Laser Diffraction Particle Size Analyzer (produced by Shimadzu Corporation). […]
# (§2) Separately, the suspension was sonicated for 1 min with an ultrasonic wave generator attached to the particle size analyzer, and the mean particle size of the treated suspension was measured as described above.
# [2] = Mean particle size of aripiprazole/silicone oil suspension by laser diffraction, with and without sonication; type: physicochemical; conditions: 20 weight % aripiprazole suspension after wet pulverization, before silicone oil addition
# Experimental: Suspensions containing aripiprazole and silicone oil in the contents presented in Table 1 were prepared according to the following method. A 0.1% or 1% silicone oil emulsion prepared by diluting Dow Corning® 365, 35% Dimethicone NF Emulsion (produced by Dow Corning Corporation) in purified water was used as the silicone oil. A sodium carboxymethylcellulose/mannitol/sodium dihydrogenphosphate solution was used as a dispersion medium. The solids content of the aripiprazole was adjusted to about 10 to 20 weight %. No foaming occurred in any of the suspensions.
# An aqueous suspension (200 mg aripiprazole/1.1 to 2 mL) containing aripiprazole (IM Depot) and silicone oil was prepared as follows.
# Note that the aripiprazole suspension was prepared according to a wet pulverization method that uses a high-pressure homogenizer (see Japanese Patent Application No. 2007-200088 filed by Otsuka Pharmaceutical Co., Ltd.).
# An aripiprazole hydrate bulk powder was suspended in a dispersion medium at 20 weight %. […]
# as §1, §2
Structure (SMILES),Mean primary particle size of the resulting suspension [1],Mean primary particle size of the resulting suspension [2]
"O=c1ccc2ccc(OCCCCN3CCN(c4cccc5sccc45)CC3)cc2[nH]1 [Compound (II), 7-[4-(4-benzo[b]thiophen-4-yl-piperazin-1-yl)butoxy]-1H-quinolin-2-one]",5.3 μm,
"O=C1CCc2ccc(OCCCCN3CCN(c4cccc(Cl)c4Cl)CC3)cc2N1 [aripiprazole, Aripiprazole]",,2.0 μm
